What was measured:
[1] = tested on: HIV primary isolates and laboratory-adapted strains; conditions: cited from earlier work
antibody 38C2 = test: Inactivation of the catalytic (aldolase) activity of antibody 38C2, fluorescence assay with methadol as substrate; format: biochemical, mouse; conditions: preliminary studies, unpublished results
Method: To assess the potential of 2a, 3a, 2c, and 3c as programming agents, these compounds were separately mixed with antibody 38C2 at a ratio of 2:1, and the mixtures were incubated at 37° C. for 2 h. A fluorescence assay, based on using methadol as the substrate, was used to assess time-dependent inactivation of the catalytic activity of the antibody (14). Inactivation of aldolase activity should be indicative of modification of the catalytic lysine residue and, thus, chemical programming of the antibody. In the absence of the programming agents, 38C2 rapidly catalyzed the retro-aldol reaction of methadol to produce the fluorescent product 6-methoxy-2-naphthaldehyde. […] (The cpAb 38C2 using targeting agents 2a or 3a were named as 38C2-2b and 38C2-3b, respectively, based on the fact that compounds 2b and 3b were the expected ligands that conjugated with 38C2. Similarly, the analogous chemically programmed 38C2 Fab (or cp38C2Fab) construct obtained from 3a was named as 38C2Fab-3b.) These observations clearly supported the assumption that vinyl ketones, 2b and 3b, produced in situ from their acetone adducts, reacted with the active site of the antibody and also reinforced the previously described construct formation from the analogous diketone compounds 2c and 3c.

| SMILES | anti-HIV activity [1] | inactivation of the antibody (antibody 38C2) |
| --- | --- | --- |
| C=C(C)[C@@H]1CC[C@]2(C(=O)NCCCCCCCC(=O)N[C@@H](CC(C)C)[C@H](O)CC(=O)O)CC[C@]3(C)[C@H](CC[C@@H]4[C@@]5(C)CC[C@H](O)C(C)(C)[C@@H]5CC[C@]43C)[C@@H]12 [IC9564] | can inhibit both HIV primary isolates and laboratory-adapted strains | – |
| C=CC(C)=O [methylvinyl ketone] | – | rapidly inactivated the antibody |
